Broadly, the ED50 is the dose at which the effect has come halfway, by size or by number of responders.

Data on 43 compounds can be found in ChEMBL document CHEMBL3271966, “beta-Adrenergic blocking agents. 17. 1-Phenoxy-3-phenoxyalkylamino-2-propanols and 1-alkoxyalkylamino-3-phenoxy-2-propanols” (J Med Chem, 1977).

The source made the active and inactive calls. The calls are words filed in the database; no cut-off is given here.

Series [1] deals with Felis catus. Description: Inhibition of isoproterenol-induced vasodepressor response in anesthetized cat compound administered as an infusion over a period of 30 mins. It is filed as organism-based. Conditions: in vivo, iv, 0.5 h.
The subject of series [2] is Felis catus. Description: Inhibition of isoproterenol-induced tachycardia in anesthetized cat compound administered as an infusion over a period of 30 mins. The class given is functional.

Take `C=CCc1ccccc1OCCNCC(O)COc1ccccc1.O=C(O)C(=O)O` (configuration not stated): the “inhibition (INH)” value with Felis catus [1] came out at 33%. Also, it took a dose of 0.75 mg/kg to reach the 50% effect level with Felis catus [2] (0.5 h) (ED50).
For the compound `OC(CNCCOc1cccc(Cl)c1)COc1ccccc1` (configuration not stated), in the series on Felis catus [1], the “inhibition (INH)” value was found to be 36%. The ED50 in the series on Felis catus [2] (0.5 h) amounted to 0.375 mg/kg.
The like results for `Cl.OC(CNCCCOc1ccccc1)COc1ccccc1` (configuration not stated) were, in that order, 0% and 0.239 mg/kg.
The corresponding values for `COc1cccc(OC)c1OCCNCC(O)COc1ccccc1.O=C(O)C(=O)O` (configuration not stated) are 0% and 2.26 mg/kg.
The corresponding values for `COc1ccccc1OC(C)CNCC(O)COc1ccccc1.O=C(O)C(=O)O` (configuration not stated) are 0% and 0.014 mg/kg.
Consider `COCCNCC(O)COc1cccc2ccccc12` (configuration not stated), for which the ED50 result with Felis catus [2] is “inactive”.
As for `CC(C)OCCNCC(O)COc1ccccc1[N+](=O)[O-].O=C(O)C(=O)O` (configuration not stated), the “inhibition (INH)” value with Felis catus [1] was determined as 0%. Besides, it took a dose of 0.195 mg/kg to reach the 50% effect level in the series on Felis catus [2] (0.5 h) (ED50).
The corresponding values for `Cc1ccc(OCCNCC(O)COc2ccccc2)cc1` (configuration not stated) are 0% and 0.179 mg/kg.
The like results for `COc1ccc(OCCNCC(O)COc2ccccc2)cc1` (configuration not stated) were, in that order, 0% and 0.064 mg/kg.
As for `O=C(O)C(=O)O.OC(CNCCOc1c(Cl)cccc1Cl)COc1ccccc1` (configuration not stated), the “inhibition (INH)” value with Felis catus [1] is on record as 11%. For the same compound, the 50% effect level in the series on Felis catus [2] (0.5 h) (ED50) was put at a dose of 0.402 mg/kg.
On to `Cc1ccccc1OCC(O)CNCCOc1ccc(C(N)=O)cc1` (configuration not stated) [TOLAMOLOL], for which, in the series on Felis catus [1], the “inhibition (INH)” value was found to be 81%. In the series on Felis catus [2] (0.5 h), this compound displayed a median effective dose (ED50) of 0.133 mg/kg.
For `OC(CNCCOc1ccccc1)COc1ccc(OCc2ccccc2)cc1` (configuration not stated), the ED50 entry in the series with Felis catus [2] was “inactive”.
`COc1ccccc1OCC(O)CNCCOc1ccccc1.O=C(O)C(=O)O` (configuration not stated): the “inhibition (INH)” value with Felis catus [1] worked out at 0%. In the series with Felis catus [2] (0.5 h), this compound gave a median effective dose (ED50) of 0.527 mg/kg.
With `OC(CNCCOc1ccccc1F)COc1ccccc1` (configuration not stated), in the series with Felis catus [1], the “inhibition (INH)” value was determined as 0%. Also, the ED50 with Felis catus [2] (0.5 h) stood at 0.081 mg/kg.
Take `COCCNCC(O)COc1ccc(O)cc1` (configuration not stated): the “inhibition (INH)” value with Felis catus [1] came to 0%. Besides, the ED50 in the series on Felis catus [2] (0.5 h) was determined as 0.118 mg/kg.
The corresponding values for `Cc1cccc(OCCNCC(O)COc2ccccc2)c1.Cl` (configuration not stated) are 29% and 0.116 mg/kg.
For the compound `Cl.OC(CNCCOc1cccc2ccccc12)COc1ccccc1` (configuration not stated), the “inhibition (INH)” value in the series with Felis catus [1] was determined as 0%. It took a dose of 0.231 mg/kg to reach the 50% effect level in the series with Felis catus [2] (0.5 h) (ED50).
The like results for `OC(CNCCOc1ccc(Cl)cc1)COc1ccccc1` (configuration not stated) were, in that order, 0% and 0.08 mg/kg.
The like results for `CC(CNCC(O)COc1ccccc1)Oc1ccccc1` (configuration not stated) were, in that order, 0% and 0.051 mg/kg.
As for `COCCNCC(O)COc1ccccc1` (configuration not stated), in the series with Felis catus [1], the “inhibition (INH)” value amounted to 0%. The same compound returned an ED50 in the series with Felis catus [2] (0.5 h) of 0.13 mg/kg.
The like results for `CCOCCCNCC(O)COc1ccccc1[N+](=O)[O-].O=C(O)C(=O)O` (configuration not stated) were, in that order, 0% and 0.566 mg/kg.
The like results for `COCCNCC(O)COc1ccccc1[N+](=O)[O-]` (configuration not stated) were, in that order, 29% and 0.293 mg/kg.
As to `Cc1cccc(OCC(O)CNCCOc2ccccc2)c1.Cl` (configuration not stated), in the series on Felis catus [1], the “inhibition (INH)” value is reported as 33%. This compound also registered a median effective dose (ED50) in the series with Felis catus [2] (0.5 h) of 1.76 mg/kg.
For the compound `COc1ccccc1OCCNCC(O)COc1ccccc1` (configuration not stated), the “inhibition (INH)” value in the series on Felis catus [1] came to 0%. In the series with Felis catus [2] (0.5 h), this compound displayed a 50% effective dose (ED50) of 0.063 mg/kg.
Consider `COc1ccccc1OCCNCC(O)COc1ccccc1OC.O=C(O)C(=O)O` (configuration not stated), for which the “inhibition (INH)” value in the series with Felis catus [1] is listed as 60%. For the same compound, the ED50 in the series with Felis catus [2] (0.5 h) is 0.539 mg/kg.
The like results for `OC(CNCCOc1ccccc1)COc1ccccc1` (configuration not stated) were, in that order, 0% and 0.054 mg/kg.
`O=C(O)C(=O)O.OC(CNCCOc1ccccc1)COc1ccccc1Cl` (configuration not stated): in the series on Felis catus [1], the “inhibition (INH)” value came to 38%. The same compound registered a median effective dose (ED50) in the series with Felis catus [2] (0.5 h) of 1.11 mg/kg.
The corresponding values for `Oc1ccc(OCC(O)CNCCOc2ccccc2)cc1` (configuration not stated) are 78% and 0.031 mg/kg.
The corresponding values for `OC(CNCCOc1ccc(F)cc1)COc1ccccc1` (configuration not stated) are 58% and 0.029 mg/kg.
`Cc1ccc(OCC(O)CNCCOc2ccccc2)cc1` (configuration not stated): in the series with Felis catus [2], the ED50 entry was “inactive”.
In the case of `OC(CNCCOc1ccccc1)COc1ccccc1Br` (configuration not stated), in the series on Felis catus [1], the “inhibition (INH)” value stood at 0%. In the series with Felis catus [2] (0.5 h), this compound had a median effective dose (ED50) of 0.3 mg/kg.
`CCOCCNCC(O)COc1ccccc1` (configuration not stated): the “inhibition (INH)” value with Felis catus [1] is reported as 10%. Moreover, the ED50 in the series with Felis catus [2] (0.5 h) was 0.047 mg/kg.
As to `OC(CNCCOc1ccc(OCc2ccccc2)cc1)COc1ccccc1` (configuration not stated), in the series with Felis catus [1], the “inhibition (INH)” value came out at 0%. In the series on Felis catus [2] (0.5 h), the 50% effective dose (ED50) stood at 0.534 mg/kg.
The corresponding values for `Cc1ccccc1OCC(O)CNCCOc1ccccc1.Cl` (configuration not stated) are 12% and 0.284 mg/kg.
Consider `COCCNCC(O)COc1ccc(Cl)cc1` (configuration not stated), for which, in the series with Felis catus [2], the ED50 result is “inactive”.
As for `COc1ccccc1OCCCNCC(O)COc1ccccc1.O=C(O)C(=O)O` (configuration not stated), the “inhibition (INH)” value in the series with Felis catus [1] stood at 15%. Besides, the 50% effective dose (ED50) in the series with Felis catus [2] (0.5 h) worked out at 0.721 mg/kg.
Consider `CCOCCCNCC(O)COc1ccccc1` (configuration not stated), for which the “inhibition (INH)” value with Felis catus [1] is reported as 0%. Besides, it took a dose of 0.066 mg/kg to reach the 50% effect level with Felis catus [2] (0.5 h) (ED50).
The corresponding values for `O=C(O)C(=O)O.OC(CNCCOc1ccccc1Cl)COc1ccccc1` (configuration not stated) are 71% and 0.821 mg/kg.
On to `Cc1ccccc1OCCNCC(O)COc1ccccc1` (configuration not stated), for which the “inhibition (INH)” value with Felis catus [1] was found to be 0%. For the same compound, the ED50 with Felis catus [2] (0.5 h) came to 0.031 mg/kg.
The corresponding values for `Cc1cccc(Cl)c1OCCNCC(O)COc1ccccc1.O=C(O)C(=O)O` (configuration not stated) are 79% and 0.09 mg/kg.
Take `COCCNCC(O)COc1ccccc1C#N` (configuration not stated): the “inhibition (INH)” value in the series with Felis catus [1] worked out at 0%. For the same compound, the ED50 in the series with Felis catus [2] (0.5 h) is 0.198 mg/kg.
The like results for `Cl.Oc1ccccc1OCCNCC(O)COc1ccccc1` (configuration not stated) were, in that order, 0% and 0.022 mg/kg.
The like results for `CCCc1ccccc1OCCNCC(O)COc1ccccc1.O=C(O)C(=O)O` (configuration not stated) were, in that order, 0% and 0.833 mg/kg.
